Results from article PMC3958426, “Prolonged Calcitonin Receptor Signaling by Salmon, but Not Human Calcitonin, Reveals Ligand Bias” (PLoS ONE, 2014).

Columns and labels:
[1] = biological target: T1, human calcitonin receptor (CT(a)R), U2OS CALCR membranes (Homo sapiens, UniProt P30988); test: Ligand association on isolated U2OS CALCR membranes; assay type: binding; details: ^125I ligand 0.25 nM; for association constant KON, membranes: room temperature (∼22°C), 20 mM HEPES, 1 mM CaCl2, 5 mM MgCl2, nonspecific with 250 nM unlabeled sCT, triplicate, mean ± SEM; for time to plateau of specific binding, membranes: ∼22°C
T1 construct: host or cells: U2OS (PathHunter U2OS CALCR β-arrestin cell line)
T1 sequence (P30988 25-474): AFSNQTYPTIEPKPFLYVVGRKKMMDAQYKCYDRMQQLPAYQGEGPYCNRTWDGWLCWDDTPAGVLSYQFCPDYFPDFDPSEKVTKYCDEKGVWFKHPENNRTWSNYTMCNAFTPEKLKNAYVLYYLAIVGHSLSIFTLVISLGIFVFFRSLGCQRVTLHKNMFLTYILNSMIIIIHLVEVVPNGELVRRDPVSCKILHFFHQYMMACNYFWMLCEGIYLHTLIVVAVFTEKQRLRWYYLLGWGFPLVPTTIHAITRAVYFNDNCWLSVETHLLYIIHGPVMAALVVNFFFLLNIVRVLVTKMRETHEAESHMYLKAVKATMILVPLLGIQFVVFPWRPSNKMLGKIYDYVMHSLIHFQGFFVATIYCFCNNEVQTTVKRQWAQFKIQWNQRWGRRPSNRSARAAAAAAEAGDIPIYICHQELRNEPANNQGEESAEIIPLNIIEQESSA
Protocol: The binding kinetics of ^125I-(Tyr 22)-sCT and ^125I-(Tyr 12)-hCT were assessed using isolated membranes from Cos-7 CT(a)R or U2OS CALCR. Concentration of radio-labeled ligand was 0.25 nM unless otherwise specified. Membranes were isolated and purified as previously described. Membrane protein content was determined with a NanoDrop 1000 (Thermo Scientific). In general, radio-labeled ligand and membrane were mixed in binding buffer (20 mM HEPES, 1 mM CaCl2, 5 mM MgCl2) with complete protease inhibitor (11836170001, Roche), each condition in triplicate, in 96-well plates and incubation at room temperature (∼22°C) with shaking. Ligand association: The radio-labeled ligand was incubated with the membrane and the membrane-bound radioactivity was determined as described above at specific time points 2½, 5, 10, 20, 40, 80 and 160 min. Nonspecific binding was determined at each time point with co-incubation of 250 nM unlabeled sCT. Ligand dissociation: The radio-labeled ligand and membrane were incubated for one hour to allow ligand-receptor saturation. Dissociation was monitored following the addition of 250 nM unlabeled sCT to prevent rebinding of dissociated radio-ligand. The membrane-bound radioactivity (total binding) was determined at time 0, 1, 2, 4, 6, 24, 48 and 72 h after the initiation of dissociation. Competitive ligand binding: The radio-labeled ligand and membrane were co-incubated with one of seven different concentrations of corresponding unlabeled ligand (1 μM sCT or hCT with a fivefold dilution row) for one hour. Post incubation sample extraction: The binding mixtures were transferred to 1.5 ml Eppendorf tubes and centrifuged at 17,000 g (4°C for 5 min). Membrane pellets were washed with cold binding buffer, resuspended and then re-centrifuged (17,000 g, 4°C for 5 min).
(§1) Samples, resuspended pellet or solubilized cell membrane, were transferred to borosilicate tubes and bound radioactivity was measured using a 1470 Wallac Wizard Gamma Counter.

[2] = biological target: T2, human calcitonin receptor (CT(a)R), U2OS CALCR cells (Homo sapiens, UniProt P30988); test: Ligand association on live U2OS CALCR cells; assay type: binding; details: 37°C
T2 construct: host or cells: U2OS (PathHunter U2OS CALCR β-arrestin cell line)
T2 sequence (P30988 25-474): T1 sequence (P30988 25-474)
Protocol: 15,000 U2OS CALCR cells/well were seeded into 96 well culture plates the day prior to the experiment. All cell based binding kinetics studies were made identical in terms of ‘hot’ and ‘cold’ ligand concentrations and incubation times to match membrane studies. Post incubation sample extraction: The binding mixture and cells were mixed in culture medium in triplicates in 96-well plates and incubated at 37°C. At the end of the incubation, the binding mixture was removed and cells were washed three times in PBS to remove residual unbound ligand. 200 μL 0.5 M NaOH was added to each well and cells were allowed to solubilize for at least 20 min.
as §1

CT(a)R = details: live cells; cited from earlier work
From the text: The calcitonins (CT) are a group of evolutionary conserved 32 amino acid peptide hormones, which have been isolated from many different species over the last 50 years and divided into several distinct groups based on structure and sequence. The calcitonins bind to the calcitonin receptor (CT(a)R), which belongs to the class B subfamily of G-protein coupled receptors (GPCRs), [3]. […] […].

amylin receptor (AMY-R) = details: isolated membranes; cited from earlier work
From the text: (§2) The calcitonins (CT) are a group of evolutionary conserved 32 amino acid peptide hormones, which have been isolated from many different species over the last 50 years and divided into several distinct groups based on structure and sequence. The calcitonins bind to the calcitonin receptor (CT(a)R), which belongs to the class B subfamily of G-protein coupled receptors (GPCRs), [3].

[3] = cited from earlier work
From the text: as §2

Substance | association constant KON, membranes [1] | time to plateau of specific binding, membranes [1] [min] | peak binding, live cells, ^125I-hCT vs ^125I-sCT [2] | specific binding after 180 min compared to 20 min, live cells ([2]; ^125I ligand 0.25 nM) [%] | time of maximal specific binding, live cells ([2]; ^125I ligand 0.25 nM) [min] | reversibility of binding (CT(a)R) | time to plateau of specific binding, live cells ([2]; ^125I ligand 0.25 nM) [min] | association constant KON, live cells ([2]; ^125I ligand 0.25 nM, triplicate, mean ± SEM) | dissociation from the amylin receptor (amylin receptor (AMY-R)) | duration of biological activity in vivo [3]
^125I-(Tyr12)-hCT [^125I-hCT] | 2.1±0.3×10^9 M^−1min^−1 | ~8 | similar | < 20 | 20 | fully reversible | – | – | – | –
^125I-(Tyr22)-sCT [^125I-sCT] | 3.1±0.5×10^9 M^−1min^−1 | ~8 | similar | – | – | – | 180 | 1.1±0.1×10^8 M^−1min^−1 | – | –
amylin (KCNTATCATQRLANFLVHSSNNFGAILSSTNVGSNTY; Islet amyloid polypeptide; UniProt P10997 34-70, looked up) | – | – | – | – | – | – | – | – | fully reversible | –
davalintide | – | – | – | – | – | – | – | – | dissociated very slowly | prolonged biological activity in vivo
